Measurements taken from the NIST ThermoML archive (doi:10.1021/je050484k).
“And” between values parts separate entries of the source, which are not always exact repeats. Equal entries are not always repeated.

What was measured:
[1] = for surface tension liquid-gas: Pendant drop shape; for mass density: 101 kPa, Liquid
[2] = xn = mol fraction of the nth substance listed; conditions: for surface tension liquid-gas: Pendant drop shape; for mass density: 101 kPa, Liquid

COCCO [2-methoxyethan-1-ol]
[1]
Conditions	mass density [kg/m3]	surface tension liquid-gas [mN/m]
298.15 K	960.02	30.88
313.15 K	946.17	29.42

Cc1cc(C)cc(C)c1 [1,3,5-trimethylbenzene] + COCCO
[2]
Conditions	mass density [kg/m3]	surface tension liquid-gas [mN/m]
298.15 K, x2 = 0	861.05	28.09
298.15 K, x2 = 0.0486	862.67	–
298.15 K, x2 = 0.0993	865.02	28.19
298.15 K, x2 = 0.1546	867.91	–
298.15 K, x2 = 0.2021	870.67	28.23
298.15 K, x2 = 0.2469	873.41	–
298.15 K, x2 = 0.3015	877.06	28.34
298.15 K, x2 = 0.3469	880.3	–
298.15 K, x2 = 0.4011	884.41	28.51
298.15 K, x2 = 0.45	888.41	–
298.15 K, x2 = 0.501	892.85	28.73
298.15 K, x2 = 0.5508	897.5	–
298.15 K, x2 = 0.6004	902.45	29.03
298.15 K, x2 = 0.6509	907.91	–
298.15 K, x2 = 0.7003	913.59	29.35
298.15 K, x2 = 0.7483	919.54	–
298.15 K, x2 = 0.8008	926.64	29.72
298.15 K, x2 = 0.8501	933.84	–
298.15 K, x2 = 0.9001	941.83	30.2
298.15 K, x2 = 0.9502	950.56	–
313.15 K, x2 = 0	848.74	26.82
313.15 K, x2 = 0.0518	850.28	–
313.15 K, x2 = 0.0979	852.21	26.93
313.15 K, x2 = 0.1489	854.71	–
313.15 K, x2 = 0.198	857.38	26.91
313.15 K, x2 = 0.2497	860.47	–
313.15 K, x2 = 0.3009	863.78	26.97
313.15 K, x2 = 0.349	867.13	–
313.15 K, x2 = 0.3988	870.82	27.02
313.15 K, x2 = 0.4527	875.14	–
313.15 K, x2 = 0.5005	879.25	27.13
313.15 K, x2 = 0.5497	883.79	–
313.15 K, x2 = 0.6003	888.79	27.36
313.15 K, x2 = 0.6491	893.96	–
313.15 K, x2 = 0.6995	899.77	27.67
313.15 K, x2 = 0.7498	906.04	–
313.15 K, x2 = 0.8001	912.79	28.01
313.15 K, x2 = 0.8374	918.17	–
313.15 K, x2 = 0.9006	928.15	28.55
313.15 K, x2 = 0.9491	936.64	–

Cc1cc(C)cc(C)c1 [1,3,5-trimethylbenzene]
[1]
Conditions	mass density [kg/m3]	surface tension liquid-gas [mN/m]
298.15 K	861.05	28.09
313.15 K	848.74	26.82

COCCOC [1,2-dimethoxyethane] + Cc1ccc(C)c(C)c1
[2], x1 = 1
Conditions	mass density [kg/m3]	surface tension liquid-gas [mN/m]
298.15 K	861.38	23.93
313.15 K	845.31	22.51

Cc1cc(C)cc(C)c1 [1,3,5-trimethylbenzene] + COCCOC
[2], x2 = 0
Conditions	mass density [kg/m3]	surface tension liquid-gas [mN/m]
298.15 K	861.05	28.09
313.15 K	848.74	26.82

COCCO [2-methoxyethan-1-ol] + Cc1cc(C)cc(C)c1
[2], x1 = 1
Conditions	mass density [kg/m3]	surface tension liquid-gas [mN/m]
298.15 K	960.02	30.88
313.15 K	946.17	29.42

COCCOC [1,2-dimethoxyethane]
[1]
Conditions	mass density	surface tension liquid-gas [mN/m]
298.15 K	861.38 kg/m3	23.93
313.15 K	845.31 kg/m3 and 845.28 kg/m3	22.51

Cc1ccc(C)c(C)c1 [1,2,4-trimethylbenzene] + COCCOC
[2]
Conditions	mass density [kg/m3]	surface tension liquid-gas [mN/m]
298.15 K, x2 = 0	871.65	29.29
298.15 K, x2 = 0.0488	871.13	–
298.15 K, x2 = 0.103	870.57	28.71
298.15 K, x2 = 0.1497	870.09	–
298.15 K, x2 = 0.205	869.53	28.11
298.15 K, x2 = 0.2496	869.07	–
298.15 K, x2 = 0.3006	868.54	27.54
298.15 K, x2 = 0.3515	868.02	–
298.15 K, x2 = 0.398	867.54	26.97
298.15 K, x2 = 0.4492	867.02	–
298.15 K, x2 = 0.5005	866.49	26.43
298.15 K, x2 = 0.5491	865.99	–
298.15 K, x2 = 0.601	865.46	25.9
298.15 K, x2 = 0.649	864.97	–
298.15 K, x2 = 0.6979	864.48	25.42
298.15 K, x2 = 0.7506	863.94	–
298.15 K, x2 = 0.7977	863.46	24.92
298.15 K, x2 = 0.8501	862.93	–
298.15 K, x2 = 0.9018	862.41	24.41
298.15 K, x2 = 0.9463	861.95	–
313.15 K, x2 = 0	859.54	27.67
313.15 K, x2 = 0.0482	858.88	–
313.15 K, x2 = 0.1004	858.17	–
313.15 K, x2 = 0.1019	–	27.02
313.15 K, x2 = 0.1494	857.51	–
313.15 K, x2 = 0.1999	856.82	–
313.15 K, x2 = 0.2002	–	26.43
313.15 K, x2 = 0.2495	856.16	–
313.15 K, x2 = 0.2999	855.48	–
313.15 K, x2 = 0.3004	–	25.85
313.15 K, x2 = 0.353	854.74	–
313.15 K, x2 = 0.4007	–	25.26
313.15 K, x2 = 0.4015	854.06	–
313.15 K, x2 = 0.4557	853.31	–
313.15 K, x2 = 0.4991	–	24.73
313.15 K, x2 = 0.4996	852.68	–
313.15 K, x2 = 0.5499	851.99	–
313.15 K, x2 = 0.5989	851.29	–
313.15 K, x2 = 0.6006	–	24.23
313.15 K, x2 = 0.6513	850.53	–
313.15 K, x2 = 0.7002	–	23.77
313.15 K, x2 = 0.7005	849.81	–
313.15 K, x2 = 0.7508	849.12	–
313.15 K, x2 = 0.7999	–	23.32
313.15 K, x2 = 0.8	848.38	–
313.15 K, x2 = 0.8503	847.65	–
313.15 K, x2 = 0.9007	–	22.94
313.15 K, x2 = 0.9008	846.87	–
313.15 K, x2 = 0.9493	846.16	–

Cc1ccc(C)c(C)c1 [1,2,4-trimethylbenzene] + COCCO
[2]
Conditions	mass density [kg/m3]	surface tension liquid-gas [mN/m]
298.15 K, x2 = 0	871.65	29.29
298.15 K, x2 = 0.0507	873.14	–
298.15 K, x2 = 0.0976	875.08	29.36
298.15 K, x2 = 0.154	877.75	–
298.15 K, x2 = 0.2031	880.31	29.36
298.15 K, x2 = 0.2556	883.31	–
298.15 K, x2 = 0.3021	886.13	29.35
298.15 K, x2 = 0.3482	889.1	–
298.15 K, x2 = 0.3999	892.67	29.44
298.15 K, x2 = 0.453	896.6	–
298.15 K, x2 = 0.5015	900.39	29.57
298.15 K, x2 = 0.5513	904.61	–
298.15 K, x2 = 0.6035	909.35	29.78
298.15 K, x2 = 0.6526	914.1	–
298.15 K, x2 = 0.7033	919.38	30.03
298.15 K, x2 = 0.7534	924.98	–
298.15 K, x2 = 0.7974	930.26	30.34
298.15 K, x2 = 0.8455	936.54	–
298.15 K, x2 = 0.9014	944.31	30.61
298.15 K, x2 = 0.9507	951.9	–
313.15 K, x2 = 0	859.54	27.67
313.15 K, x2 = 0.0494	860.68	–
313.15 K, x2 = 0.1019	862.75	27.78
313.15 K, x2 = 0.15	864.92	–
313.15 K, x2 = 0.2002	867.4	27.72
313.15 K, x2 = 0.2486	869.95	–
313.15 K, x2 = 0.3004	873	27.72
313.15 K, x2 = 0.3507	876.1	–
313.15 K, x2 = 0.4007	879.45	27.79
313.15 K, x2 = 0.4502	883.02	–
313.15 K, x2 = 0.4991	886.8	27.84
313.15 K, x2 = 0.5513	891.2	–
313.15 K, x2 = 0.6006	895.56	28.03
313.15 K, x2 = 0.653	900.55	–
313.15 K, x2 = 0.7002	905.44	28.29
313.15 K, x2 = 0.7504	910.91	–
313.15 K, x2 = 0.7999	916.79	28.59
313.15 K, x2 = 0.8496	923.25	–
313.15 K, x2 = 0.9007	930.3	28.96
313.15 K, x2 = 0.9504	937.74	–

COCCO [2-methoxyethan-1-ol] + Cc1ccc(C)c(C)c1
[2], x1 = 1
Conditions	mass density [kg/m3]	surface tension liquid-gas [mN/m]
298.15 K	960.02	30.88
313.15 K	946.17	29.42

COCCOC [1,2-dimethoxyethane] + Cc1cc(C)cc(C)c1
[2]
Conditions	mass density [kg/m3]	surface tension liquid-gas [mN/m]
298.15 K, x1 = 0.0487	860.76	–
298.15 K, x1 = 0.0997	860.5	27.6
298.15 K, x1 = 0.1518	860.24	–
298.15 K, x1 = 0.201	860.03	27.07
298.15 K, x1 = 0.2499	859.85	–
298.15 K, x1 = 0.2978	859.68	26.59
298.15 K, x1 = 0.3484	859.56	–
298.15 K, x1 = 0.3973	859.41	26.14
298.15 K, x1 = 0.451	859.35	–
298.15 K, x1 = 0.4991	859.29	25.71
298.15 K, x1 = 0.5498	859.31	–
298.15 K, x1 = 0.5977	859.3	25.35
298.15 K, x1 = 0.6494	859.42	–
298.15 K, x1 = 0.7011	859.52	25
298.15 K, x1 = 0.7499	859.69	–
298.15 K, x1 = 0.7999	859.91	24.67
298.15 K, x1 = 0.8474	860.25	–
298.15 K, x1 = 0.9008	860.54	24.3
298.15 K, x1 = 0.9484	860.95	–
298.15 K, x1 = 1	861.38	23.93
313.15 K, x1 = 0.0504	848.29	–
313.15 K, x1 = 0.0988	847.89	26.2
313.15 K, x1 = 0.1505	847.48	–
313.15 K, x1 = 0.1996	847.11	25.69
313.15 K, x1 = 0.2474	846.78	–
313.15 K, x1 = 0.3	846.42	25.17
313.15 K, x1 = 0.3495	846.14	–
313.15 K, x1 = 0.4	845.85	24.69
313.15 K, x1 = 0.4498	845.61	–
313.15 K, x1 = 0.5002	845.34	24.24
313.15 K, x1 = 0.5502	845.18	–
313.15 K, x1 = 0.5998	845	23.84
313.15 K, x1 = 0.6509	844.85	–
313.15 K, x1 = 0.6989	844.79	23.49
313.15 K, x1 = 0.7494	844.74	–
313.15 K, x1 = 0.8	844.75	23.17
313.15 K, x1 = 0.8505	844.8	–
313.15 K, x1 = 0.8991	844.92	22.84
313.15 K, x1 = 0.9502	845.1	–
313.15 K, x1 = 1	845.28	22.51

Cc1ccc(C)c(C)c1 [1,2,4-trimethylbenzene]
[1]
Conditions	mass density [kg/m3]	surface tension liquid-gas [mN/m]
298.15 K	871.65	29.29
313.15 K	859.54	27.67
